Tested on: mollusks
Experiment: Exposure of mollusks in the water-monitoring system to toxicant-loaded water; shell gape and Degree of Alarm (DOA)
Format: in vivo
Method: Further calibration of the system is performed after one or more mollusk chambers are properly installed. The digital circuitry or computer 39 then monitors the gape of the mollusk during approximately the first three days after installation. From the gape values derived during this period, the computer derives a natural maximum gape value for the individual mollusk. Subsequent calculations based on output from the mollusk chamber 15 are based on the percentage of gape, i.e., the percentage of the maximum gape output value that the presently detected gape output value represents.
When the system 3 contains a number of mollusk chambers 15, the individual mollusk percentage gape data for all of the mollusks of the system is totaled, and the average percentage gape value calculated periodically per sampling interval by computer 38. This mean data value Gi is the variable used as the mollusk output data for determining if toxicants are present in the water being screened.
In the present specification, Gi means the current average mollusk gape data, Gi−1 means the most recent earlier mollusk output value, Gi−2 the next earlier mollusk output variable, etc. The oldest of the gape values is Gi−n+1. Preferably, the set of data values Gi−n+1 to Gi are stored in a FIFO (first-in, first-out) stack data structure in the computer doing the analysis. The stack acts as a shift register, shifting earlier data values as the new data value Gi is acquired. Preferably the value of n is 30, and the data values G are acquired every half-second.
A variable referred to as Degree of Alarm (“DOA”) is derived from the mean mollusk output data using one of a variety of analysis formulae or methods, ranging from simpler models to more complex systems based on neural net technology that can identify the particular toxicant types that are present in the water and causing a reaction by the mollusks.
According to an aspect of the invention, the variance over time of the gape values is one of the best statistical indicators of the pumping of the mollusk. By the term variance, what is meant is a determination of the variability of the gape values from a mean value, which may be determined or expressed using a variety of functions. Particularly preferred, however, is the classical calculation of variance as: [formula]
wherein V is the mean variance in gape over a recent period of time, preferably 30 seconds, R is the mean regression of the gape over the period (regression herein meaning the slope of the best-fit line through the data values of the time period). M may be the traveling mean as defined above, or may be the mean gape taken over another longer period, preferably about one hour.
An implementation of this method is shown by the graphs of FIGS. 7 to 10. Water being screened by a system as described previously was loaded with sulphuric acid, resulting in a drop in pH as shown in the graph of FIG. 7.
An implementation of such a DOA method using a Logistic calculation, with a variance factor added for variances over 50, is illustrated by the graphs of FIGS. 12 to 16.
In this example, a system as in Example 3 was used, only the toxicant introduced was copper (as aqueous CuSO4), as shown in FIG. 17.

## O=S(=O)([O-])[O-].[Cu+2] [copper, CuSO4]
Logistic calculation with variance factor, out of a possible 10, between 0.5 and 1.0 hours, copper concentration still relatively low
  DOA values: exceed 8
Copper (as aqueous CuSO4), between 0.5 and 1.0 hours
  gape when DOA exceeded 8: 50%

## [Cl-].[Na+] [chloride, NaCl]
Logistic calculation with variance factor for variances over 50, at 0.5 hours, chloride concentration still relatively low
  DOA output: greater than 5
Gradually increasing concentration of chloride (as aqueous NaCl)
  raw gape data, decreasing gape over time: less than 40 % of normal maximum gape

## O=S(=O)(O)O [sulphuric acid]
DOA=(V·|R|)/M, water loaded with sulphuric acid, before 200 minutes
  DOA values (spike): greater than 100
Water loaded with sulphuric acid (drop in pH), shortly after 200 minutes
  average percentage gape of the mollusks: less than 10 % of the normal maximum
Water loaded with sulphuric acid, variance over ten most recent values spikes shortly before 200 minutes
  percentage gape when variance spikes: 40%

Reference: patent US20040049353A1, “System and method for monitoring water using bivalve mollusks” (priority 2003, published 2004)
